Test results published in patent US20080167314A1, “Condensed Imidazole Compound And Use Thereof” (priority 2004, published 2008).
Structures can show the parent of a compound that is named as a salt.

melting point | Compound
202 to 203 °C | Cc1cccc(-c2nc3cccnn3c2-c2ccnc(NC3CC3)c2)c1 [Example Compound 6-4, N-cyclopropyl-4-[2-(3-methylphenyl)imidazo[1,2-b]pyridazin-3-yl]pyridin-2-amine]
177 to 178 °C | COc1ccc(C(=O)Nc2cc(-c3c(-c4cccc(C)c4)nc4cccnn34)ccn2)cc1 [Example compound 20-2, 4-methoxy-N-{4-[2-(3-methylphenyl)imidazo[1,2-b]pyridazin-3-yl]pyridin-2-yl}benzamide]
204 to 205 °C | Cc1cccc(-c2nc3cccnn3c2-c2ccnc(NC(=O)c3cccc(F)c3)c2)c1 [Example Compound 20-4, 3-fluoro-N-{4-[2-(3-methylphenyl)imidazo[1,2-b]pyridazin-3-yl]pyridin-2-yl}benzamide]
200 to 202 °C | COc1ccc(C(=O)Nc2cc(-c3c(-c4ccc(F)c(C)c4)nc4cccnn34)ccn2)c(C)c1 [Example 42-18, N-{4-[2-(4-fluoro-3-methylphenyl)imidazo[1,2-b]pyridazin-3-yl]pyridin-2-yl}-4-methoxy-2-methylbenzamide]
213 to 214 °C | Cc1ccc(Nc2cc(-c3c(-c4cccc(C)c4)nc4cccnn34)ccn2)cc1 [Example Compound 6-8, N-(4-methylphenyl)-4-[2-(3-methylphenyl)imidazo[1,2-b]pyridazin-3-yl]pyridin-2-amine]
247 to 248 °C | Cc1cccc(-c2nc3ccc(Cl)nn3c2-c2ccnc(N)c2)c1 [Example 12, 4-[6-Chloro-2-(3-methylphenyl)imidazo[1,2-b]pyridazin-3-yl]pyridin-2-amine]
234 to 235 °C | Cc1cc(-c2nc3cccnn3c2-c2ccnc(NC(=O)Nc3ccsc3)c2)ccc1F [Example 47-6, N-{4-[2-(4-fluoro-3-methylphenyl)imidazo[1,2-b]pyridazin-3-yl]pyridin-2-yl}-N′-3-thienylurea]
225 to 226 °C | Cc1cc(-c2nc3cccnn3c2-c2ccnc(NC(=O)c3ccc(C(F)(F)F)nc3)c2)ccc1F [Example 42-26, N-{4-[2-(4-fluoro-3-methylphenyl)imidazo[1,2-b]pyridazin-3-yl]pyridin-2-yl}-6-(trifluoromethyl)nicotinamide]
225 to 227 °C | CNC(=O)Nc1cc(-c2c(-c3ccc(F)c(C)c3)nc3cccnn23)ccn1 [Example 47-1, N-{4-[2-(4-fluoro-3-methylphenyl)imidazo[1,2-b]pyridazin-3-yl]pyridin-2-yl}-N′-methylurea]
237 to 238 °C | CSc1cc(Cl)nn2c(-c3ccnc(N)c3)c(-c3ccc(F)c(C)c3)nc12 [Example Compound 36-4, 4-[6-chloro-2-(4-fluoro-3-methylphenyl)-8-(methylthio)imidazo[1,2-b]pyridazin-3-yl]-2-pyridylamine]
154 to 155 °C | Cc1cccc(-c2nc3cccnn3c2-c2ccnc(N[C@H](C)c3ccccc3)c2)c1 [Example Compound 6-22, 4-[2-(3-methylphenyl)imidazo[1,2-b]pyridazin-3-yl]-N-[(1R)-1-phenylethyl]pyridin-2-amine]
252 to 253 °C | Cc1cc(-c2nc3cccnn3c2-c2ccnc(NC(=O)c3cccc4ccccc34)c2)ccc1F [Example 42-20, N-{4-[2-(4-fluoro-3-methylphenyl)imidazo[1,2-b]pyridazin-3-yl]pyridin-2-yl}-1-naphthamide]
210 to 211 °C | CCC(=O)N(C(=O)CC)c1cc(-c2c(-c3cccc(C)c3)nc3cccnn23)ccn1 [Example 22, N-{4-[2-(3-Methylphenyl)imidazo[1,2-b]pyridazin-3-yl]pyridin-2-yl}-N-propionylpropanamide]
156 to 157 °C | Cc1cc(-c2nc3cccnn3c2-c2ccnc(NC(=O)N3CCC(O)CC3)c2)ccc1F.Cl
139 to 140 °C | Cc1cc(-c2nc3cccnn3c2-c2ccnc(NC(=O)NCC(C)O)c2)ccc1F (stereo not drawn) [Example 51-13, N-{4-[2-(4-fluoro-3-methylphenyl)imidazo[1,2-b]pyridazin-3-yl]pyridin-2-yl}-N′-(2-hydroxypropyl)urea]
207 to 209 °C | Cc1cc(-c2nc3cccnn3c2-c2ccnc(NC(=O)c3ccc(Cl)cc3)c2)ccc1F [Example Compound 21-17, 4-chloro-N-{4-[2-(4-fluoro-3-methylphenyl)imidazo[1,2-b]pyridazin-3-yl]pyridin-2-yl}benzamide]
195 to 196 °C | Cc1cccc(-c2nc3cccnn3c2-c2ccnc(NC3CCCc4ccccc43)c2)c1 (stereo not drawn) [Example Compound 6-12, 4-[2-(3-methylphenyl)imidazo[1,2-b]pyridazin-3-yl]-N-(1,2,3,4-tetrahydtonaphthalen-1-yl)pyridin-2-amine]

melting point | Compound
246 to 247 °C | CCNC(=O)Nc1cc(-c2c(-c3ccc(F)c(C)c3)nc3cc(C(C)(C)C)c(Cl)nn23)ccn1 [Example 48-2, N-{4-[7-tert-butyl-6-chloro-2-(4-fluoro-3-methylphenyl)imidazo[1,2-b]pyridazin-3-yl]-2-pyridyl}-N′-ethylurea]
164 to 166 °C | Cc1cc(-c2nc3cccnn3c2-c2ccnc(NC(=O)N3CCOCC3)c2)ccc1F.Cl
128 to 129 °C | CCCCNc1cc(-c2c(-c3cccc(C)c3)nc3cccnn23)ccn1 [Example Compound 6-24, N-butyl-4-[2-(3-methylphenyl)imidazo[1,2-b]pyridazin-3-yl]pyridin-2-amine]
230 to 231 °C | CCNC(=O)Nc1cc(-c2c(-c3cccc(Cl)c3)nc3cccnn23)ccn1 [Example Compound 28-7, N-{4-[2-(3-chlorophenyl)imidazo[1,2-b]pyridazin-3-yl]pyridin-2-yl}-N′-ethylurea]
191 to 192 °C | Cc1cccc(-c2nc3ccc(Cl)nn3c2-c2ccnc(Nc3ccc(F)cc3C)c2)c1 [Example Compound 3-1, 4-[6-chloro-2-(3-methylphenyl)imidazo[1,2-b]pyridazin-3-yl]-N-(4-fluoro-2-methylphenyl)pyridin-2-amine]
150 to 151 °C | Cc1cccc(-c2nc3cccnn3c2-c2ccnc(NCc3ccco3)c2)c1 [Example Compound 6-17, N-(2-furylmethyl)-4-[2-(3-methylphenyl)imidazo[1,2-b]pyridazin-3-yl]pyridin-2-amine]
239 to 241 °C | Cc1cc(-c2nc3cccnn3c2-c2ccnc(NC(=O)c3ccc(Cl)cc3)c2)ccc1F (as salt: methanesulfonate) [Example 62, 4-Chloro-N-{4-[2-(4-fluoro-3-methylphenyl)imidazo[1,2-b]pyridazin-3-yl]pyridin-2-yl}benzamide methanesulfonate]
137 to 138 °C | Cc1cccc(-c2nc3cccnn3c2-c2ccnc(NCC3CCCO3)c2)c1 (stereo not drawn) [Example Compound 6-16, 4-[2-(3-methylphenyl)imidazo[1,2-b]pyridazin-3-yl]-N-(tetrahydrofuran-2-ylmethyl)pyridin-2-amine]
208 to 209 °C | Cc1cc(-c2nc3cccnn3c2-c2ccnc(NC(=O)c3ccc(Cl)cc3)c2)ccc1F [Example 42-7, 4-chloro-N-{4-[2-(4-fluoro-3-methylphenyl)imidazo[1,2-b]pyridazin-3-yl]pyridin-2-yl}benzamide]
220 to 221 °C | Cc1cc(-c2nc3cccnn3c2-c2ccnc(NC(=O)CC(F)(F)F)c2)ccc1F [Example 42-1, 3,3,3-trifluoro-N-{4-[2-(4-fluoro-3-methylphenyl)imidazo[1,2-b]pyridazin-3-yl]pyridin-2-yl}propanamide]
176 to 177 °C | Cc1cccc(-c2nc3cccnn3c2-c2ccnc(NCCO)c2)c1 [Example Compound 6-5, 2-({4-[2-(3-methylphenyl)imidazo[1,2-b]pyridazin-3-yl]pyridin-2-yl}amino)ethanol]
195 to 196 °C | Cc1cccc(Nc2cc(-c3c(-c4cccc(C)c4)nc4cccnn34)ccn2)c1 [Example Compound 6-9, N-(3-methylphenyl)-4-[2-(3-methylphenyl)imidazo[1,2-b]pyridazin-3-yl]pyridin-2-amine]
173 to 175 °C | Cc1cccc(-c2nc3cccnn3c2-c2ccnc(NC(=O)N3CCCCC3)c2)c1 [Example 31, N-{4-[2-(3-Methylphenyl)imidazo[1,2-b]pyridazin-3-yl]pyridin-2-yl}piperidine-1-carboxamide]
223 to 224 °C | Cc1cccc(-c2nc3cccnn3c2-c2ccnc(NC(=O)C(C)O)c2)c1 (stereo not drawn) [Example 29, 2-Hydroxy-N-{4-[2-(3-methylphenyl)imidazo[1,2-b]pyridazin-3-yl]pyridin-2-yl}propanamide]
232 to 233 °C | Cc1cc(-c2nc3cc(C(C)(C)C)c(Cl)nn3c2-c2ccnc(N)c2)ccc1F [Example Compound 36-2, 4-[7-tert-butyl-6-chloro-2-(4-fluoro-3-methylphenyl)imidazo[1,2-b]pyridazin-3-yl]-2-pyridylamine]
212 to 213 °C | Cc1cc(-c2nc3cc(C(C)(C)C)cnn3c2-c2ccnc(N)c2)ccc1F [Example Compound 37-3, 4-[7-tert-butyl-2-(4-fluoro-3-methylphenyl)imidazo[1,2-b]pyridazin-3-yl]-2-pyridylamine]
